The target of assay [1] is T1, Progesterone receptor (Homo sapiens, UniProt P06401).
T1 sequence (P06401 whole entry): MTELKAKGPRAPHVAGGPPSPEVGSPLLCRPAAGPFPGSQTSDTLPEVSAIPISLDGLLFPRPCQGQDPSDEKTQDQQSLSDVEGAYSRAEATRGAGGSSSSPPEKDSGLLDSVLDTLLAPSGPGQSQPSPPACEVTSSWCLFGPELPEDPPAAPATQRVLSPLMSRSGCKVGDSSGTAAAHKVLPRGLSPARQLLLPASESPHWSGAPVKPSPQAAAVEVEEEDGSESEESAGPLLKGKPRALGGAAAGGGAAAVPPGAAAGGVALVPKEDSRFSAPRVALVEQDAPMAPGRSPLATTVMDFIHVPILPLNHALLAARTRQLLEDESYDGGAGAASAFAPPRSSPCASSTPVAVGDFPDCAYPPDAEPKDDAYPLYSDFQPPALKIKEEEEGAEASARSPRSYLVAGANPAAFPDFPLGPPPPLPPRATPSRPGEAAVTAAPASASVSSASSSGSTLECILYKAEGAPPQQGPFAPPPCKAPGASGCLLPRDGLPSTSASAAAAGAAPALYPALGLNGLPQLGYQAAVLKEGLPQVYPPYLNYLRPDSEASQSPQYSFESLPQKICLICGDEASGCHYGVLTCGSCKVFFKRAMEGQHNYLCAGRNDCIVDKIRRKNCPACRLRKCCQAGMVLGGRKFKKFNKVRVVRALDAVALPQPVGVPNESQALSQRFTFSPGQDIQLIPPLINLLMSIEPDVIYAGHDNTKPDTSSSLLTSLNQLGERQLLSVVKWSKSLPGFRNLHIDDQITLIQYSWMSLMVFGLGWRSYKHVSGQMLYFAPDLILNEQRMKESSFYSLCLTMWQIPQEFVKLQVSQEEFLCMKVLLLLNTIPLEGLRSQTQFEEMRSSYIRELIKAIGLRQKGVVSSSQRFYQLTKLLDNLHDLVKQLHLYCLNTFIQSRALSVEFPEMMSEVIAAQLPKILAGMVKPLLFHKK
Kind of assay: Antagonistic activity against human progesterone receptor B (hPR-B) in co-transfected CV-1 cells. It is filed as functional, cell-based.

The target of assay [2] is T2, Androgen receptor (Homo sapiens, UniProt P10275).
T2 sequence (P10275 whole entry): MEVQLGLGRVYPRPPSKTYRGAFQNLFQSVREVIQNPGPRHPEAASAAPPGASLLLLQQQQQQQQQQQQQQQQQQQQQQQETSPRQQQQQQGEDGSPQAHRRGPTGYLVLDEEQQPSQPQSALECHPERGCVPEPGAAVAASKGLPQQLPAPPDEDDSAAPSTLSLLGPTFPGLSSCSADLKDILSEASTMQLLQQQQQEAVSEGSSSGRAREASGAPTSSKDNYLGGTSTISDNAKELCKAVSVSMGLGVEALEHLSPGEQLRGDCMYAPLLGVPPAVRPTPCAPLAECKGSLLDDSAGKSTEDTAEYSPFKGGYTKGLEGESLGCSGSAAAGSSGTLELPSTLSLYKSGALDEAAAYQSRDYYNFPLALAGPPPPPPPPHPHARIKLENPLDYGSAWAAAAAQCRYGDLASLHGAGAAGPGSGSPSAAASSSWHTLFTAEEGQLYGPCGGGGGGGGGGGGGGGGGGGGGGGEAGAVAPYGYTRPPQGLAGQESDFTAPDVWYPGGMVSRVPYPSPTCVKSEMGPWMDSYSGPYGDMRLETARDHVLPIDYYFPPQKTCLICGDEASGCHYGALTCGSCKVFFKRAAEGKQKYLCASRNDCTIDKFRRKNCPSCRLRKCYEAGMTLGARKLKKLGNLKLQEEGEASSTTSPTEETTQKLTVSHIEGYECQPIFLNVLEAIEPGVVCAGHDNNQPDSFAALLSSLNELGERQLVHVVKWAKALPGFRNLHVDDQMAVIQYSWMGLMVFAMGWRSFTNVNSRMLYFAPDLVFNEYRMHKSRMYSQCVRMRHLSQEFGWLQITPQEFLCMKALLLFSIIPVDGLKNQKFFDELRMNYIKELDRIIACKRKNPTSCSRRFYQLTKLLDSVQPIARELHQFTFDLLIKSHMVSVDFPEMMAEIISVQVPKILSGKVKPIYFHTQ
Description: Antagonistic activity against human androgen receptor (hAR) in co-transfected CV-1 cells.

Assay [3] has as its target T2, Androgen receptor. Put plainly: biochemical.
Description: Binding affinity for human androgen receptor in transiently-transfected COS-1 cells.
In assay [4] the target is T3, Progesterone receptor (Homo sapiens) (UniProt P06401).
T3 sequence (whole entry): T1 sequence (P06401 whole entry)
Put plainly: Efficacy as a function of maximal inhibition against human progesterone receptor B (hPR-B).

On to `CC1=CC(C)(C)Nc2cc3[nH]c(=O)cc(C)c3cc21`, for which the results for the IC50 in assay [1] and in assay [2] were 109 nM and 36 nM, respectively. The Ki in assay [3] amounted to 62 nM.

Consider `CC(C)C1CC(C)(C)Nc2cc3nc(O)cc(C(F)(F)F)c3cc21` (stereo not drawn), for which, in assay [4], the Efficacy is 59%. For the same molecule, the results for the IC50 in assay [1] and in assay [2] were 3160 nM and 159 nM, respectively. Besides, in assay [3], the affinity, expressed as Ki, was 650 nM.

For `CCC1(C)CCc2cc3c(C(F)(F)F)cc(=O)n(C)c3cc2N1C` (stereo not drawn), the Efficacy in assay [4] stood at 92%. For the same molecule, the results for the IC50 in assay [1] and in assay [2] were 1100 nM and 24 nM, respectively. Moreover, the Ki in assay [3] worked out at 10 nM.

With `CCCC1(C)CCc2cc3c(C(F)(F)F)cc(=O)[nH]c3cc2N1` (stereo not drawn), the IC50 in assay [1] was determined as 1140 nM; in assay [2], 42 nM. Besides, the affinity in assay [3] corresponds to a Ki of 69 nM.

Take `CC1=CC(C)(C)N(C)c2cc3nc(O)cc(C(F)(F)F)c3cc21`: the Efficacy in assay [4] was determined as 55%. For the same molecule, the IC50 in assay [1] turned out to be 1680 nM; in assay [2], 156 nM. Further, affinity in assay [3] was put at a Ki of 695 nM.

`CC1c2cc3c(C(F)(F)F)cc(O)nc3cc2NC(C)(C)C1(C)C` (stereo not drawn): the Efficacy in assay [4] amounted to 93%. The IC50 in assay [1] is 362 nM; in assay [2], 57 nM. For the same molecule, the Ki in assay [3] was 358 nM.

Regarding `CC1(C)Cc2cc3c(C(F)(F)F)cc(=O)[nH]c3cc2NC1(C)C`, the IC50 in assay [1] worked out at 876 nM; in assay [2] it was 83 nM. In addition, the Ki in assay [3] came out at 189 nM.

Regarding `Cc1c2c(cc3c(C(F)(F)F)cc(=O)[nH]c13)C(C)CC(C)(C)N2` (stereo not drawn), the figures for the IC50 in assay [1] and in assay [2] were 3730 nM and 22 nM, respectively. In assay [3], this molecule returned a Ki of 85 nM.

Molecule `CN1c2cc3c(cc2CCC1(C)C)c(C(F)(F)F)cc(=O)n3C` registered an Efficacy in assay [4] of 85%. Moreover, the IC50 was 2200 nM in assay [1] and 19 nM in assay [2]. This molecule also came in with a Ki in assay [3] of 17 nM.

Molecule `CC1(C)C=Cc2cc3c(C(F)(F)F)cc(O)nc3cc2N1` returned an Efficacy in assay [4] of 81%. Further, the values for the IC50 in assay [1] and in assay [2] were 390 nM and 58 nM, respectively. Moreover, the Ki in assay [3] was found to be 86 nM.

In turn, `CCC1(CC)CCc2cc3c(C(F)(F)F)cc(O)nc3cc2N1` displayed an Efficacy in assay [4] of 81%. Moreover, the IC50 in assay [1] is 2710 nM; in assay [2], 27 nM. This molecule displayed a Ki in assay [3] of 102 nM.

In assay [4], `CCn1c(=O)cc(C(F)(F)F)c2cc3c(cc21)NC(C)(C)C=C3C` displayed an Efficacy of 55%. Besides, the IC50 is 1760 nM in assay [1] and 692 nM in assay [2]. In addition, the Ki in assay [3] stood at 670 nM.

In assay [4], `CCC1CC(C)(C)Nc2cc3nc(O)cc(C(F)(F)F)c3cc21` (stereo not drawn) had an Efficacy of 74%. For the same molecule, the figures for the half-maximal inhibitory concentration (IC50) in assay [1] and in assay [2] were 274 nM and 27 nM, respectively. In assay [3], this molecule had a Ki of 54 nM.

In assay [4], `CCC1(C)CCc2cc3c(C(F)(F)F)cc(=O)n(C)c3cc2N1` (stereo not drawn) registered an Efficacy of 73%. Moreover, the half-inhibitory concentration (IC50) amounted to 3280 nM in assay [1] and 48 nM in assay [2]. This molecule had a Ki in assay [3] of 69 nM.

In the case of `Cn1c(=O)cc(C(F)(F)F)c2cc3c(cc21)NC(C)(C)CC3`, in assay [4], the Efficacy was determined as 74%. Further, the figures for the IC50 in assay [1] and in assay [2] were 1240 nM and 36 nM, respectively. In addition, in assay [3], the Ki was determined as 56 nM.

`Oc1cc(C(F)(F)F)c2cc3c(cc2n1)NC1(CCCCC1)CC3` came in with an Efficacy in assay [4] of 94%. Besides, the IC50 in assay [1] stood at 1830 nM; in assay [2] it was 35 nM. Besides, in assay [3], the Ki was 9 nM.

For the molecule `CC1=CC(C)(C)Nc2cc3c(cc21)c(C(F)(F)F)cc(=O)n3C`, the Efficacy in assay [4] came to 88%. Besides, the IC50 in assay [1] came to 233 nM; in assay [2], 34 nM. This molecule also gave a Ki in assay [3] of 81 nM.

`CC1CC(C)(C)Nc2cc3c(cc21)c(C(F)(F)F)cc(=O)n3C` (stereo not drawn) yielded an Efficacy in assay [4] of 98%. Also, the results for the IC50 in assay [1] and in assay [2] were 585 nM and 73 nM, respectively. In assay [3], this molecule displayed a Ki of 46 nM.

As to `CCC1Cc2cc3c(C(F)(F)F)cc(=O)[nH]c3cc2NC1(C)C` (stereo not drawn), the IC50 is 2330 nM in assay [1] and 46 nM in assay [2]. The affinity in assay [3], expressed as Ki, was 251 nM.

In assay [4], `Cc1c2c(cc3c(C(F)(F)F)cc(=O)n(C)c13)C(C)CC(C)(C)N2` (stereo not drawn) yielded an Efficacy of 79%. The IC50 in assay [1] turned out to be 2930 nM; in assay [2], 31 nM. The same molecule came in with an inhibition constant Ki in assay [3] of 40 nM.

In the case of `CC1Cc2cc3c(C(F)(F)F)cc(=O)[nH]c3cc2NC1(C)C` (stereo not drawn), the IC50 in assay [1] was determined as 348 nM; in assay [2], 30 nM. This molecule returned a Ki in assay [3] of 73 nM.

The molecule `CC1=CC(C)(C)Nc2c1cc1c(C(F)(F)F)cc(=O)n(C)c1c2C` came in with an Efficacy in assay [4] of 68%. Moreover, in assay [1], the IC50 amounted to 4400 nM. In assay [3], this molecule gave a Ki of 874 nM.

In assay [4], `CC1=CC(C)(C)N(C)c2cc3c(cc21)c(C(F)(F)F)cc(=O)n3C` registered an Efficacy of 91%. The IC50 in assay [1] was determined as 136 nM; in assay [2], 46 nM. For the same molecule, the affinity in assay [3], expressed as Ki, was 39 nM.

As to `CC1=C(C)C(C)(C)Nc2cc3[nH]c(=O)cc(C(F)(F)F)c3cc21`, the IC50 was 393 nM in assay [1] and 68 nM in assay [2]. In addition, the affinity in assay [3], expressed as Ki, was 268 nM.

Values taken from ChEMBL document CHEMBL1131477, “Synthesis and biological activity of a novel series of nonsteroidal, peripherally selective androgen receptor antagonists derived from 1,2-dihydropyridono[5,6-g]quinolines” (J Med Chem, 1998).
